# Experimental data as given in patent US6235973A, “Expression of magainin and PGL classes of antimicrobial peptide genes in plants, and their use in creating resistance to multiple plant pathogens” (Sanford Scientific, Inc., priority 1998, dated 2001).
# Where “and” joins values, the source holds several entries; their conditions need not be identical. Equal values may be shown once. Residues, ends and D or L forms follow the SMILES beside them.
# Tests used:
# [1] = system: Pseudomonas syringae and Erwinia carotovora; conditions: for activity against log phase-grown Pseudomomas and Erwinia: compared with MSI-99 and D5-C
# [2] = system: Phytophthora parasitica (petunia); assay: In vitro MIC, microtiter serial dilution; type: cell-based; conditions: germinated
# [3] = system: Botrytis cinerea; assay: Anti-Botrytis leaf disk bioassay, transgenic petunia; conditions: control = 100
# [4] = system: Erwinia carotovora; assay: In vitro MIC, microtiter serial dilution; type: cell-based; conditions: inhibits all growth after 24 hrs
# [5] = system: Fusarium solani; assay: In vitro MIC, microtiter serial dilution; type: cell-based
# [6] = system: Botrytis cinerea; assay: Anti-Botrytis leaf disk bioassay, transgenic poinsettia; conditions: control = 100
# [7] = system: Phytophthora parasitica (vinca); assay: In vitro MIC, microtiter serial dilution; type: cell-based
# [8] = system: Thielaviopsis basicola; assay: In vitro MIC, microtiter serial dilution; type: cell-based
# [9] = system: Rhizoctonia solani R2; conditions: Rhizoctonia solani R2, mycelial fragments
# [10] = system: Fusarium graminearum; type: cell-based; conditions: non-germinated
# [11] = system: Pseudomonas syringae; assay: In vitro MIC, microtiter serial dilution; type: cell-based; conditions: inhibits all growth after 24 hrs
# [12] = system: Botrytis cinerea; assay: In vitro MIC, microtiter serial dilution; type: cell-based
# [13] = plasmid 144, three distinct plants
# [14] = plasmid 143, three distinct plants
smiles,measurement,setting,value
"CC[C@H](C)[C@H](NC(=O)[C@H](CCCCN)NC(=O)[C@H](CCCNC(=N)N)NC(=O)[C@H](C)NC(=O)[C@H](CC(C)C)NC(=O)[C@H](CCCCN)NC(=O)[C@H](CCCCN)NC(=O)[C@H](CC(C)C)NC(=O)[C@H](CCCNC(=N)N)NC(=O)[C@H](CCCNC(=N)N)NC(=O)CNC(=O)[C@@H](NC(=O)[C@H](CCCNC(=N)N)NC(=O)[C@H](CCCCN)NC(=O)[C@@H](NC(=O)[C@H](C)NC(=O)[C@H](CCCNC(=N)N)NC(=O)[C@H](CCCCN)NC(=O)[C@H](CCCNC(=N)N)NC(=O)[C@H](CCCCN)NC(=O)[C@@H](N)CCSC)C(C)C)C(C)C)C(=O)N[C@@H](C)C(=O)N[C@@H](CCCNC(=N)N)C(=O)N[C@@H](CC(C)C)C(=O)NCC(=O)N[C@H](C(=O)N[C@@H](C)C(=O)N[C@@H](Cc1ccccc1)C(=O)O)C(C)C [D5-C, reference compound] (H-MKRKRAVKRVGRRLKKLARKIARLGVAF-OH)",MIC,[1],< 2 µg/mL
same,Minimum Inhibitory Concentration,[2],16 to 32 µg/mL
same,"Disease Incidence, percent leaf disks infected relative to untransformed control",[3]; [13],31% and 41% and 50%
same,"Disease Incidence, percent leaf disks infected relative to untransformed control","[3]; plasmid 148, three distinct plants",52% and 70% and 75%
same,Minimum Inhibitory Concentration,[4],2 µg/mL
same,Minimum Inhibitory Concentration,[5]; germinated,4 µg/mL
same,Minimum Inhibitory Concentration,[5]; non-germinated,4 µg/mL
same,"Disease Incidence, percent leaf disks infected relative to untransformed control",[6]; [13],62% and 68% and 72%
same,"Disease Incidence, percent leaf disks infected relative to untransformed control","[6]; plasmid 165, three distinct plants",42% and 60% and 67%
same,Minimum Inhibitory Concentration,[7]; germinated,16 to 32 µg/mL
same,Minimum Inhibitory Concentration,[7]; non-germinated,16 µg/mL
same,Minimum Inhibitory Concentration,[8]; germinated,16 µg/mL
same,Minimum Inhibitory Concentration,[8]; non-germinated,16 µg/mL
same,Minimum Inhibitory Concentration,[9],32 to 64 µg/mL
CC[C@H](C)[C@H](NC(=O)CNC(=O)[C@@H](N)CCSC)C(=O)NCC(=O)N[C@@H](CCCCN)C(=O)N[C@@H](Cc1ccccc1)C(=O)N[C@@H](CC(C)C)C(=O)N[C@@H](Cc1c[nH]cn1)C(=O)N[C@@H](CO)C(=O)N[C@@H](C)C(=O)N[C@@H](CCCCN)C(=O)N[C@@H](CCCCN)C(=O)N[C@@H](Cc1ccccc1)C(=O)NCC(=O)N[C@@H](CCCCN)C(=O)N[C@@H](C)C(=O)N[C@@H](Cc1ccccc1)C(=O)N[C@H](C(=O)NCC(=O)N[C@@H](CCC(=O)O)C(=O)N[C@H](C(=O)N[C@@H](CCSC)C(=O)N[C@@H](CC(N)=O)C(=O)N[C@@H](CO)C(=O)O)[C@@H](C)CC)C(C)C [Mag 2] (H-MGIGKFLHSAKKFGKAFVGEIMNS-OH; N-terminus and C-terminus assumed),activity against log phase-grown Pseudomomas and Erwinia,[1],significantly less active
same,Minimum Inhibitory Concentration,[2],> 128 µg/mL
same,Minimum Inhibitory Concentration,[4],32 µg/mL
same,Minimum Inhibitory Concentration,[5]; germinated,4 to 8 µg/mL
same,Minimum Inhibitory Concentration,[5]; non-germinated,4 µg/mL
same,Minimum Inhibitory Concentration,[10],4 µg/mL
same,Minimum Inhibitory Concentration,[11],32 µg/mL
same,Minimum Inhibitory Concentration,[7]; germinated,> 128 µg/mL
same,Minimum Inhibitory Concentration,[7]; non-germinated,> 256 µg/mL
same,Minimum Inhibitory Concentration,[8]; germinated,4 µg/mL
same,Minimum Inhibitory Concentration,[8]; non-germinated,8 µg/mL
same,Minimum Inhibitory Concentration,[9],16 to 32 µg/mL
same,Minimum Inhibitory Concentration,[12]; germinated,8 µg/mL
same,Minimum Inhibitory Concentration,[12]; non-germinated,8 to 16 µg/mL
CC[C@H](C)[C@H](NC(=O)[C@H](C)NC(=O)CNC(=O)[C@H](C)NC(=O)[C@H](CCCCN)NC(=O)[C@H](CO)NC(=O)[C@H](C)NC(=O)[C@H](CCSC)NC(=O)CN)C(=O)N[C@@H](C)C(=O)NCC(=O)N[C@@H](CCCCN)C(=O)N[C@H](C(=O)N[C@@H](C)C(=O)N[C@@H](CCCCN)C(=O)N[C@H](C(=O)N[C@@H](C)C(=O)N[C@@H](CC(C)C)C(=O)N[C@@H](CCCCN)C(=O)N[C@@H](C)C(=O)N[C@@H](CC(C)C)C(N)=O)C(C)C)[C@@H](C)CC [PGL] (H-GMASKAGAIAGKIAKVALKAL-NH2),activity against log phase-grown Pseudomomas and Erwinia,[1],significantly less active
same,Minimum Inhibitory Concentration,[2],> 128 µg/mL
same,Minimum Inhibitory Concentration,[4],32 µg/mL
same,Minimum Inhibitory Concentration,[5]; germinated,8 to 16 µg/mL
same,Minimum Inhibitory Concentration,[5]; non-germinated,4 µg/mL
same,Minimum Inhibitory Concentration,[10],4 to 8 µg/mL
same,Minimum Inhibitory Concentration,[11],> 64 µg/mL
same,Minimum Inhibitory Concentration,[7]; germinated,> 128 µg/mL
same,Minimum Inhibitory Concentration,[7]; non-germinated,> 256 µg/mL
same,Minimum Inhibitory Concentration,[8]; germinated,4 µg/mL
same,Minimum Inhibitory Concentration,[8]; non-germinated,4 to 8 µg/mL
same,Minimum Inhibitory Concentration,[9],16 to 32 µg/mL
same,Minimum Inhibitory Concentration,[12]; germinated,8 µg/mL
same,Minimum Inhibitory Concentration,[12]; non-germinated,4 to 8 µg/mL
CC[C@H](C)[C@H](NC(=O)CNC(=O)[C@@H](N)CCSC)C(=O)NCC(=O)N[C@@H](CCCCN)C(=O)N[C@@H](Cc1ccccc1)C(=O)N[C@@H](CC(C)C)C(=O)N[C@@H](CCCCN)C(=O)N[C@@H](CO)C(=O)N[C@@H](C)C(=O)N[C@@H](CCCCN)C(=O)N[C@@H](CCCCN)C(=O)N[C@@H](Cc1ccccc1)C(=O)NCC(=O)N[C@@H](CCCCN)C(=O)N[C@@H](C)C(=O)N[C@@H](Cc1ccccc1)C(=O)N[C@H](C(=O)N[C@@H](CCCCN)C(=O)N[C@H](C(=O)N[C@@H](CC(C)C)C(=O)N[C@@H](CC(N)=O)C(=O)N[C@@H](CO)C(=O)O)[C@@H](C)CC)C(C)C [MSI-99] (H-MGIGKFLKSAKKFGKAFVKILNS-OH; N-terminus and C-terminus assumed),MIC,[1],< 2 µg/mL
same,Minimum Inhibitory Concentration,[2],8 to 16 µg/mL
same,"Disease Incidence, percent leaf disks infected relative to untransformed control",[3]; [14],26% and 30% and 31%
same,"Disease Incidence, percent leaf disks infected relative to untransformed control","[3]; plasmid 147, three distinct plants",36% and 60% and 70%
same,Minimum Inhibitory Concentration,[4],1 µg/mL
same,Minimum Inhibitory Concentration,[5]; germinated,4 µg/mL
same,Minimum Inhibitory Concentration,[5]; non-germinated,2 µg/mL
same,Minimum Inhibitory Concentration,[10],4 µg/mL
same,Minimum Inhibitory Concentration,[11],1 µg/mL
same,"Disease Incidence, percent leaf disks infected relative to untransformed control",[6]; [14],48% and 61% and 69%
same,"Disease Incidence, percent leaf disks infected relative to untransformed control","[6]; plasmid 168, three distinct plants",31% and 40% and 52%
same,Minimum Inhibitory Concentration,[7]; germinated,16 to 32 µg/mL
same,Minimum Inhibitory Concentration,[7]; non-germinated,64 µg/mL
same,Minimum Inhibitory Concentration,[8]; germinated,4 µg/mL
same,Minimum Inhibitory Concentration,[8]; non-germinated,4 µg/mL
same,Minimum Inhibitory Concentration,[9],16 µg/mL
same,Minimum Inhibitory Concentration,[12]; germinated,8 µg/mL
same,Minimum Inhibitory Concentration,[12]; non-germinated,8 µg/mL
